Entries after “also recorded” stand apart in the source; their conditions may differ.
Experiments:
[1] = test system: rat brachial plexus and sciatic nerves; assay: In vivo nerve-specificity screening with FLARE imaging
Excerpt: The dual-NIR channel FLARE^a imaging system has been described in detail previously (26-28). In this study, a 670 nm excitation was used at a fluence rate of 4 mW/cm^2, with white light (400-650 nm) at 40,000 1×. Color and NIR fluorescence images were acquired simultaneously with custom software at rates up to 15 Hz over a 15 cm diameter field of view. A pseudo-colored lime green was used for NIR fluorescence in the color-NIR merged images. The imaging system was positioned at a distance of 18 inches from the surgical field.
(§1) Initial in vivo screening occurred in rats based on our previous study of BMB (Supplementary Methods) (25). For kinetic and dose-response studies, 50-400 nmol (0.8-6.3 mg/kg) of Oxazine 4 was injected intravenously into mice and measurements taken over 24 h. Control images were acquired prior to injecting NIR fluorophores. The fluorescence signal in nervous tissues and signal-to-background ratio (SBR) compared to neighboring muscle (Mu) were obtained over the period of imaging. For the large animal study, the optimal dose found in mice (200-400 nmol per mouse) was used in pigs by scaling to body surface area (29, 30).
Sprague-Dawley (SD) male rats weighing 250-300 g were purchased from Charles River Laboratories (Wilmington, Mass.). BMB, Oxazine 1, Oxazine 4, Oxazine 170, Oxazine 750, and Rhodamine 800 were initially screened to investigate nerve specificity in rats. For the initial screening, we administered a relatively high dose (2 mg/kg; 1 μmol) of each fluorophore intravenously. 4 h after injection, brachial plexus (BP) and sciatic nerve (SN) were imaged using the intraoperative FLARE^a system for in vivo nerve-specific fluorophores screening.

[2] = test system: brachial plexus (BP) and sciatic nerves (SN) of CD-1 mice; assay: Kinetics and dose-response of nerve targeting in small animals; type: in vivo, mouse
Method: 100 nmol (1.6 mg/kg) of Oxazine was injected intravenously into CD-1 mice, and SBR (BP/Mu) and SBR (SN/Mu) were measured at different time points (T=0, 1, 4, 6, 12, and 24 h). Arrowheads indicate fluorescence signals in nerve bundles. SG=salivary glands; Mu=muscle. Scale bars=1 cm. All NIR fluorescence images have identical exposure times (500 msec) and normalizations. B) Dose-response curve of SBR (mean±SEM) for BP and SN. 0, 50, 100, 200, and 400 nmol of Oxazine 4 were injected intravenously into CD-1 mice, and SBR (BP/Mu) and SBR (SN/Mu) were measured at 4 h post-injection. Arrowheads indicate fluorescence signals in nerve bundles. SG=salivary glands; Mu=muscle. Scale bars=1 cm. All NIR fluorescence images have identical exposure times (500 msec) and normalizations.
as §1
The fluorescence intensity (FI) and background (BG) intensity of a region of interest (ROI) over each nerve/tissue were calculated and quantified using custom FLARE^a software. The FI of the RLN, BP, and SN at the optimal dose and time point were quantified to measure tissue-specific targeting. Adjacent tissues such as trachea (Tr), thyroid (Th), tracheoesophageal groove (TEG), muscle (Mu), and adipose tissue (Ad) were used as background to calculate the SBR of RLN, BP, and SN in pigs. Statistical analysis was carried out using a one-way ANOVA followed by Tukey's multiple comparisons test. Results were presented as mean±S.D. and curve fitting was performed using Prism version 4.0a software (GraphPad, San Diego, Calif.).

[3] = test system: recurrent laryngeal nerve (RLN), brachial plexus (BP) and sciatic nerve (SN) of Yorkshire pigs; assay: Nerve targeting in large animals, intraoperative FLARE imaging; type: in vivo, pig; conditions: iv
Method: 20 μmol (0.17 mg/kg) of Oxazine 4 was injected intravenously into 35 kg Yorkshire pigs, and the SBR of nerves to the specified surrounding tissue was measured at different time points (T=0, 15, 30, 60, 120, 180, and 240 min). B) Real-time intraoperative fluorescence images of RLN (top), BP (middle), and SN (bottom) acquired at different time points (T=0, 15, 30, 60, 120, 180, and 240 min). Ad=adipose tissue; Mu=muscle; TEG=tracheoesophageal groove; Th=thyroid; Tr=trachea. Scale bars=1 cm. Fluorescence images have identical exposure times (500 msec) and normalizations. C) Fluorescence microscopic images of cryosectioned RLN, BP, and SN. Samples were obtained after injecting 20 μmol of Oxazine 4 into Yorkshire pigs 4 h prior to resection. Shown are representative images (N=5) of H&E (left) and NIR fluorescence (right) images. Scale bars=[…]. All NIR fluorescence images have identical exposure times and normalizations.
Animals were housed in an AAALAC-certified facility. Animal studies were performed under the supervision of Beth Israel Deaconess Medical Center's Institutional Animal Care and Use Committee (IACUC) in accordance with approved institutional protocols (#101-2011 for rodents and #046-2010 for pigs). […] Following anesthesia, electrocardiogram, heart rate, pulse oximetry, and body temperature were monitored throughout surgery.
Initial in vivo screening occurred in rats based on our previous study of BMB (Supplementary Methods) (25). […] The fluorescence signal in nervous tissues and signal-to-background ratio (SBR) compared to neighboring muscle (Mu) were obtained over the period of imaging. […]
The fluorescence intensity (FI) and background (BG) intensity of a region of interest (ROI) over each nerve/tissue were calculated and quantified using custom FLARE^a software. The FI of the RLN, BP, and SN at the optimal dose and time point were quantified to measure tissue-specific targeting. […]

[4] = comparison of structures in discussion

Question: `CC/N=c1/cc2oc3cc(NCC)c(C)cc3nc-2cc1C` [Oxazine 4] was tested. Which “nerve-specific fluorescence signal in vivo” value ([1]; SD rats, 2 mg/kg (1 μmol) iv, 4 h after injection, brachial plexus and sciatic nerve, 2 mg/kg) did it give?
Answer: highest nerve-specific fluorescence signal; also recorded: higher nerve-specific fluorescence signal

Question: What about the “background (muscle and adipose tissue) fluorescence signal in vivo” value ([1]; SD rats, 2 mg/kg (1 μmol) iv, 4 h after injection, 2 mg/kg) of the same compound?
Answer: lowest background; also recorded: lower background

Question: What about the “adipose signal (discussion summary)” value [1, 4] of the same compound?
Answer: moderate adipose

Question: What about the “nerve signal (discussion summary)” value [1, 4] of the same compound?
Answer: high nerve signal

Question: And the “time of highest SBR post-intravenous injection” value ([2]; 100 nmol (1.6 mg/kg) iv)?
Answer: 4 h

Question: And the “highest SBR (nerve/muscle)” value ([2]; 100 nmol (1.6 mg/kg) iv, 4 h post-injection, BP and SN)?
Answer: ≈ 3.0

Question: What about the “SBR at 1 h post-injection” value ([2]; 100 nmol iv, 1 h) of the same compound?
Answer: low

Question: And the “fluorescence signal in nervous tissues at 24 h post-injection” value ([2]; 100 nmol iv, 24 h)?
Answer: decayed at this time point to pre-injection levels

Question: And the “dose dependence of fluorescence signals in BP and SN” value ([2]; 50-400 nmol per mouse (0.8-6.3 mg/kg), 4 h post-injection)?
Answer: proportional to the injected dose

Question: What about the optimal dose ([2]; iv, 4 h post-injection) of the same compound?
Answer: 200 nmol

Question: What about the “signal retention in BP and SN post injection” value [3] of the same compound?
Answer: up to 3 h

Question: What about the “time of maximal SBR, BP and SN” value [3] of the same compound?
Answer: 1 h

Question: What about the “time of maximal SBR, RLN” value ([3]; RLN vs surrounding tissue) of the same compound?
Answer: 3 h

— patent publication US11001562B2, “Near-infrared fluorescent nerve contrast agents and methods of use thereof” (Beth Israel Deaconess Medical Center, priority 2013, dated 2021)
